Experiment [1] deals with T1, Alpha glucosidase (Homo sapiens, UniProt O43451+P10253+P14410+Q2M2H8). Description: Inhibition of alpha-glucosidase (unknown origin) using p-NPG as substrate preincubated for 15 mins followed by substrate addition for 30 mins by absorbance based analysis. It counts as protein assay.
The target in experiment [2] is T1, Alpha glucosidase. Description: Inhibition of alpha-glucosidase (unknown origin) using p-NPG as substrate incubated for 15 mins by spectrophotometric analysis. It counts as protein assay.
Experiment [3] concerns the target T2, Tyrosine-protein phosphatase non-receptor type 1 (Homo sapiens, UniProt P18031).
T2 sequence (P18031 whole entry): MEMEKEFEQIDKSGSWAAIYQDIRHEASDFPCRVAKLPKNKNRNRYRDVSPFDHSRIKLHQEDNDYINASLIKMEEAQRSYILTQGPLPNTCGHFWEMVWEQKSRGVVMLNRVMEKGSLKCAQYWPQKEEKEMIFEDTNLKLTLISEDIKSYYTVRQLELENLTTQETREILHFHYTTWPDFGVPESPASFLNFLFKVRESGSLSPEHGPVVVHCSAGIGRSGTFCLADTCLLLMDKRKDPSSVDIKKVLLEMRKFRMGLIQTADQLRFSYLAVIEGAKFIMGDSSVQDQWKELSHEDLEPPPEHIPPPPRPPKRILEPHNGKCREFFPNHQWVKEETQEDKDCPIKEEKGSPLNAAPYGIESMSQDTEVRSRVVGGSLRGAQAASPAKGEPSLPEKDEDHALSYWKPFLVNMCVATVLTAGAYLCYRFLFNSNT
Description: Inhibition of PTP1B (unknown origin) using pNPP as substrate preincubated for 10 mins followed by substrate addition for 20 mins by absorbance based analysis.

For experiment [4], the system named is Mus musculus. Description: Reduction in blood glucose concentration in male Kunming mouse assessed as decrease in glucose AUC at 20 mg/kg preadministered for 40 mins and measured after 120 mins by sucrose loading test relative to control. It counts as functional, organism-based.
Experiment [5] is described as follows: Inhibition of alpha-amylase (unknown origin). More on the design: species or system Homo sapiens.
The test system of experiment [6] is Mus musculus. Description: Reduction in blood glucose concentration in male Kunming mouse at 20 mg/kg preadministered for 40 mins and measured after 120 mins by sucrose loading test. The experiment is classed as functional, organism-based.

Structures are written as SMILES. Calls of active or inactive are those of the source. The calls are words filed in the database; no cut-off is given here. Bounds are passed on as bounds.

With `Cc1cc(=O)oc2c(C)c(OCCOC(=O)/C=C/c3ccc(Cl)cc3Cl)ccc12`, on Alpha glucosidase [1], the IC50 (commonly the concentration that inhibits the measured activity by half) is over 300 µM.

`COc1ccc(/C=C/C(=O)OCCOc2ccc3ccc(=O)oc3c2)cc1OC` registered a half-maximal inhibitory concentration (IC50) at Alpha glucosidase [1] of over 300 µM.

With `CO[C@@H]1c2cc3ccc(=O)oc3cc2OC(C)(C)[C@H]1OC(=O)C=C(C)C`, the half-inhibitory concentration (IC50) on Alpha glucosidase [2] stood at 89.2 µM; in experiment [3], 6.6 µM.

The compound `O=C(OCCCCOc1ccc2ccc(=O)oc2c1)c1ccc(Cl)cc1Cl` gave an IC50 on Alpha glucosidase [1] of over 300 µM.

Take `O=C(/C=C/c1ccc(Cl)cc1)OCCOc1ccc2ccc(=O)oc2c1`: at Alpha glucosidase [1], the IC50 amounted to 283.2 µM.

`C[C@H]1O[C@H](O[C@H]2[C@H](O)[C@@H](O)[C@@H](O[C@H]3[C@H](O)[C@@H](O)C(O)O[C@@H]3CO)O[C@@H]2CO)[C@H](O)[C@@H](O)[C@@H]1N[C@H]1C=C(CO)[C@@H](O)[C@H](O)[C@H]1O` (some centres not stated) [ACARBOSE]: the outcome in the experiment with Mus musculus [4] and with Mus musculus [6] was Active. In experiment [5], this compound gave a 50% inhibitory concentration (IC50) of 17.8 µM.

`O=C(/C=C/c1cccc(Br)c1)OCCOc1ccc2ccc(=O)oc2c1` came in with an IC50 at Alpha glucosidase [1] of 132.7 µM.

For `COc1cc(/C=C/C(=O)OCCOc2ccc3ccc(=O)oc3c2)ccc1O`, the IC50 at Alpha glucosidase [1] is over 300 µM.

For the compound `O=C(OCCCOc1ccc2ccc(=O)oc2c1)c1ccc(Cl)cc1Cl`, the 50% inhibitory concentration (IC50) at Alpha glucosidase [1] is over 300 µM.

Turning to `O=C(O)c1cc2ccc(=O)oc2cc1O`, the half-maximal inhibitory concentration (IC50) on Alpha glucosidase [2] amounted to 172.1 µM; in experiment [3], 8 µM.

For the compound `O=C(/C=C/c1cccc(Cl)c1)OCCOc1ccc2ccc(=O)oc2c1`, the IC50 against Alpha glucosidase [1] is over 300 µM.

As for `CC(C)c1cc2cc3ccc(=O)oc3cc2o1`, the IC50 on Alpha glucosidase [2] stood at 85.8 µM; in experiment [3], 10.8 µM.

`O=C(/C=C/c1ccccc1Cl)OCCOc1ccc2ccc(=O)oc2c1` showed a half-inhibitory concentration (IC50) on Alpha glucosidase [1] of 258.7 µM.

At Alpha glucosidase [1], `O=C(/C=C/c1ccc(Br)cc1)OCCOc1ccc2ccc(=O)oc2c1` displayed an IC50 of 263.2 µM.

For `CC(C)=CC(=O)O[C@@H]1c2cc3ccc(=O)oc3cc2OC(C)(C)[C@H]1OC(=O)C=C(C)C`, the IC50 turned out to be 79.1 µM against Alpha glucosidase [2] and 11.2 µM in experiment [3].

Turning to `O=C(/C=C/c1ccccc1)OCCOc1ccc2ccc(=O)oc2c1`, the half-maximal inhibitory concentration (IC50) against Alpha glucosidase [1] is 235.6 µM.

The values above are taken from ChEMBL document CHEMBL6092166, “Design, synthesis and enzymatic inhibition evaluation of novel 4-hydroxy Pd-C-Ⅲ derivatives as α-glucosidase and PTP1B dual-target inhibitors” (Eur J Med Chem, 2024).
